Experimental data from US20250346569A1, “NEW DERIVATIVES FOR TREATING TRPM3 MEDIATED DISORDERS” (Katholieke Universiteit Leuven, priority 2022, published 2025).

Target: T1, mouse TRPM3α2 (mTRPM3) ion channel (Mus musculus, UniProt J9SQF3)
T1 construct: expressed in transfected cells; host or cells: flip-in HEK293
Test: Monitoring the TRPM3 ion channel driven Ca2+ uptake (Fluo-4 AM assay)
Assay type: cell-based
Settings: TRPM3 overexpressing flip-in HEK293 cells, channel stimulated with Pregnenolone sulfate (PS) 50 μM
Description: Monitoring the TRPM3 ion channel driven Ca^2+ uptake.
In order to monitor the inhibition of the mouse TRPM3α2 (mTRPM3) ion channel by the compounds of the invention, a cellular system making use of an mTRPM3alpha2 or hTRPM3 overexpressing cell line (flip-in HEK293) was used. The TRPM3 channel was stimulated/opened with Pregnenolone sulfate (PS) (50 μM) which results in Ca^2+ influx.
For mTRPM3, the intracellular Ca^2+ was measured with a Calcium responsive dye, Fluor-4 AM ester (Invitrogen). Cells were cultured until a confluence of 80-90%, washed with Versene (Invitrogen) and detached from the surface by a short incubation with 0.05% Trypsin (Invitrogen). The trypsination process was stopped by the addition of complete cell culture medium (DMEM, glutamax,10% FCS,NEAA,Pen-Strep). Cells were collected and resuspended in Krebs buffer without Calcium at RT.
Prior the cell seeding (±2000 cells/well into a black, 384 well plate (Greiner)) the diluted compound was added in the assay plate, together with the PS dissolved in Krebs buffer containing Calcium. […] Directly after cell addition the plates were read on an Envision fluorescence reader (Perkin Elmer) by an Excitation of 485 nm and emission at 535 nm.
Channel inhibition was calculated compared to a non-PS stimulated control versus a condition stimulated with PS (50 μM) with vehicle. The ability of the compounds of the invention to inhibit this activity was determined as: Percentage inhibition=[1−((RFU determined for sample with test compound present−RFU determined for sample with positive control inhibitor) divided by (RFU determined in the presence of vehicle−RFU determined for sample with positive control inhibitor))]*100.
The activities of the Example compounds tested are depicted in the table below. The activity ranges A, B and C refer to IC50 values in the Fluo-4 AM assay as follows: “A”: IC50<1 μM; “B”: 1 μM≤IC50≤20 μM and “C”: IC50>20 μM

T1 sequence (J9SQF3 1-1709 isoform J9SQF3-12): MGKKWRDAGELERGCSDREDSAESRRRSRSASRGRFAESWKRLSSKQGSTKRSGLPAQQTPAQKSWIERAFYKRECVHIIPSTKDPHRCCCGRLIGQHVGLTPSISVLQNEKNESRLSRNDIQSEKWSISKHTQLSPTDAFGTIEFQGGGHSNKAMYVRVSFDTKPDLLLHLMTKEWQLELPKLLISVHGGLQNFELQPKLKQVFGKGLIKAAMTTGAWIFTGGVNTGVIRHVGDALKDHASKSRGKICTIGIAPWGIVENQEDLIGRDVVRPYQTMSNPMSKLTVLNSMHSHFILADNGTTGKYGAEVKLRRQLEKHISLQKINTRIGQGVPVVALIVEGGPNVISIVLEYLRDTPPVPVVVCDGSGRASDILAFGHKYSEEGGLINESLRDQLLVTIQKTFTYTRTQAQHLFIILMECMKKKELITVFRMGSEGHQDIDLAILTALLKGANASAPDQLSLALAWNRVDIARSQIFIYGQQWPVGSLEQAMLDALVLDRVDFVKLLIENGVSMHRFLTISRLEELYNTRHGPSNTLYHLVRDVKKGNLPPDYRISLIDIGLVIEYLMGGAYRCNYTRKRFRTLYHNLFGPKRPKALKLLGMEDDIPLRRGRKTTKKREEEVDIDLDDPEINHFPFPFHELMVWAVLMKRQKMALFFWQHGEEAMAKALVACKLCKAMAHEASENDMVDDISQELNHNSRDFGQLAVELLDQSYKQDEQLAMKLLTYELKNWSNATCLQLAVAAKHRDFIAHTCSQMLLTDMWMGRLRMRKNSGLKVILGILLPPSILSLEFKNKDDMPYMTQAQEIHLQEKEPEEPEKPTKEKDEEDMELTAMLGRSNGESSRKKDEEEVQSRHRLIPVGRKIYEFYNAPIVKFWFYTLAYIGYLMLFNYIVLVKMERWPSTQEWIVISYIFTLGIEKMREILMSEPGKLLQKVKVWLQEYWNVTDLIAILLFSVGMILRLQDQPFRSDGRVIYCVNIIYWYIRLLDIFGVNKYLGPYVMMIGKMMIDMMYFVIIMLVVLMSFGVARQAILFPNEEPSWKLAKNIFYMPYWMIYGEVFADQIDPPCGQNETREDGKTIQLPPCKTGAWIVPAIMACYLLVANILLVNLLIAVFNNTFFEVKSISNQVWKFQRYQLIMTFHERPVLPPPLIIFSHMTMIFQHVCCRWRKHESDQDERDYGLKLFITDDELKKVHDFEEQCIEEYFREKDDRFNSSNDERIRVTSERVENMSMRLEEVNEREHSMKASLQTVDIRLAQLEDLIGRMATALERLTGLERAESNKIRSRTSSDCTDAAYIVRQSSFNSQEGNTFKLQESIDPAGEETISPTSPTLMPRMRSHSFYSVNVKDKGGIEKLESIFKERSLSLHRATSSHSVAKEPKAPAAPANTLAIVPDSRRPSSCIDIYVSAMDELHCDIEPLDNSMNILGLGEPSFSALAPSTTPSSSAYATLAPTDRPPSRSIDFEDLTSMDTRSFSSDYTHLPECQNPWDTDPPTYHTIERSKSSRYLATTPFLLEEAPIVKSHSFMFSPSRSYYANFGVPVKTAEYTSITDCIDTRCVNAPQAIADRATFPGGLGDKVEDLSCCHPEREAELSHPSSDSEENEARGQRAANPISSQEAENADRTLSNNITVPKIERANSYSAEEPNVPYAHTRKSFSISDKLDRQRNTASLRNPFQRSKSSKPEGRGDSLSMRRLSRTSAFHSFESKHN

IC50 | Structure (SMILES)
< 1000 nM | Cc1sc2ccc(OCC3CC3)cc2c1C(=O)N[C@@H](CO)C(N)=O [Cpd 050, (2S)-2-{[5-(cyclopropylmethoxy)-2-methyl-1-benzothiophen-3-yl]formamido}-3-hydroxypropanamide]
< 1000 nM | Cc1sc2ccc(OCc3ccccc3F)cc2c1C(=O)N[C@@H](CO)C(N)=O [Cpd 051, (2S)-2-({5-[(2-fluorophenyl)methoxy]-2-methyl-1-benzothiophen-3-yl}formamido)-3-hydroxypropanamide]
< 1000 nM | Cc1sc2ccc(OCc3ccccn3)cc2c1C(=O)N[C@@H](CO)C(N)=O [Cpd 052, (2S)-3-hydroxy-2-({2-methyl-5-[(pyridin-2-yl)methoxy]-1-benzothiophen-3-yl}formamido)propanamide]
< 1000 nM | Cc1sc2ccc(OCc3cccnc3C(F)(F)F)cc2c1C(=O)N[C@@H](CO)C(N)=O [Cpd 053, (2S)-3-hydroxy-2-[(2-methyl-5-{[2-(trifluoromethyl)pyridin-3-yl]methoxy}-1-benzothiophen-3-yl)formamido]propanamide]
1000 to 20000 nM | Cc1sc2ccc(OCc3cccnc3O)cc2c1C(=O)N[C@@H](CO)C(N)=O [Cpd 054, (2S)-3-hydroxy-2-({5-[(2-hydroxypyridin-3-yl)methoxy]-2-methyl-1-benzothiophen-3-yl}formamido)propanamide]
1000 to 20000 nM | Cc1sc2ccc(OCc3ccccc3F)cc2c1C(=O)N[C@@H]1CCN(CCO)C1=O [Cpd 055, 5-[(2-fluorophenyl)methoxy]-N-[(3R)-1-(2-hydroxyethyl)-2-oxopyrrolidin-3-yl]-2-methyl-1-benzothiophene-3-carboxamide]
< 1000 nM | Cc1sc2ccc(OCc3ccccc3F)cc2c1C(=O)N[C@H](CO)C(N)=O [Cpd 056, (2R)-2-({5-[(2-fluorophenyl)methoxy]-2-methyl-1-benzothiophen-3-yl}formamido)-3-hydroxypropanamide]
< 1000 nM | Cc1sc2ccc(OCc3ccccn3)cc2c1C(=O)N[C@H](CO)C(N)=O [Cpd 057, (2R)-3-hydroxy-2-({2-methyl-5-[(pyridin-2-yl)methoxy]-1-benzothiophen-3-yl}formamido)propanamide]
< 1000 nM | Cc1sc2ccc(OCc3cccnc3C(F)(F)F)cc2c1C(=O)N[C@H](CO)C(N)=O [Cpd 058, (2R)-3-hydroxy-2-[(2-methyl-5-{[2-(trifluoromethyl)pyridin-3-yl]methoxy}-1-benzothiophen-3-yl)formamido]propanamide]
< 1000 nM | Cc1sc2ccc(OCc3ccccc3F)cc2c1C(=O)N[C@H]1CCN(CCO)C1=O [Cpd 059, 5-[(2-fluorophenyl)methoxy]-N-[(3S)-1-(2-hydroxyethyl)-2-oxopyrrolidin-3-yl]-2-methyl-1-benzothiophene-3-carboxamide]
< 1000 nM | Cc1sc2ccc(OCc3ccccc3)cc2c1C(=O)N[C@H]1CCNC1=O [Cpd 060, 5-(benzyloxy)-2-methyl-N-[(3S)-2-oxopyrrolidin-3-yl]-1-benzothiophene-3-carboxamide]
< 1000 nM | Cc1sc2ccc(OCC3CC3)cc2c1C(=O)NC(C)(C)C(N)=O [Cpd 061, 2-{[5-(cyclopropylmethoxy)-2-methyl-1-benzothiophen-3-yl]formamido}-2-methylpropanamide]
< 1000 nM | Cc1sc2ccc(OCc3ccccc3)cc2c1C(=O)NC(C)(C)C(N)=O [Cpd 062, 2-{[5-(benzyloxy)-2-methyl-1-benzothiophen-3-yl]formamido}-2-methylpropanamide]
< 1000 nM | Cc1sc2ccc(OCc3ccccc3F)cc2c1C(=O)NC(C)(C)C(N)=O [Cpd 063, 2-({5-[(2-fluorophenyl)methoxy]-2-methyl-1-benzothiophen-3-yl}formamido)-2-methylpropanamide]
< 1000 nM | Cc1sc2ccc(OCc3ccccn3)cc2c1C(=O)NC(C)(C)C(N)=O [Cpd 064, 2-methyl-2-({2-methyl-5-[(pyridin-2-yl)methoxy]-1-benzothiophen-3-yl}formamido)propanamide]
< 1000 nM | Cc1sc2ccc(OCc3cccnc3C(F)(F)F)cc2c1C(=O)NC(C)(C)C(N)=O [Cpd 065, 2-methyl-2-[(2-methyl-5-{[2-(trifluoromethyl)pyridin-3-yl]methoxy}-1-benzothiophen-3-yl)formamido]propanamide]
< 1000 nM | Cc1sc2ccc(OCc3cccnc3O)cc2c1C(=O)NC(C)(C)C(N)=O [Cpd 066, 2-({5-[(2-hydroxypyridin-3-yl)methoxy]-2-methyl-1-benzothiophen-3-yl}formamido)-2-methylpropanamide]

IC50 | Structure (SMILES)
< 1000 nM | Cc1sc2ccc(OCC3CC3)cc2c1C(=O)NC(C)(CO)CO [Cpd 069, 5-(cyclopropylmethoxy)-N-(1,3-dihydroxy-2-methylpropan-2-yl)-2-methyl-1-benzothiophene-3-carboxamide]
< 1000 nM | Cc1sc2ccc(OCc3ccccc3F)cc2c1C(=O)NC1(C(N)=O)CCOCC1 [Cpd 070, 4-{5-[(2-fluorophenyl)methoxy]-2-methyl-1-benzothiophene-3-amido}oxane-4-carboxamide]
< 1000 nM | Cc1sc2ccc(OCc3ccccn3)cc2c1C(=O)NC1(C(N)=O)CCOCC1 [Cpd 071, 4-{2-methyl-5-[(pyridin-2-yl)methoxy]-1-benzothiophene-3-amido}oxane-4-carboxamide]
> 20000 nM | Cc1sc2ccc(OCc3cccnc3O)cc2c1C(=O)NC1(C(=O)O)CCOCC1 [Cpd 072, 4-{5-[(2-hydroxypyridin-3-yl)methoxy]-2-methyl-1-benzothiophene-3-amido}oxane-4-carboxylic acid]
1000 to 20000 nM | Cc1sc2ccc(OCc3ccccc3)cc2c1C(=O)NC1(CO)CC1 [Cpd 073, 5-(benzyloxy)-N-[1-(hydroxymethyl)cyclopropyl]-2-methyl-1-benzothiophene-3-carboxamide]
< 1000 nM | Cc1sc2ccc(OCc3ccccc3F)cc2c1C(=O)NC1(CO)CC1 [Cpd 074, 5-[(2-fluorophenyl)methoxy]-N-[1-(hydroxymethyl)cyclopropyl]-2-methyl-1-benzothiophene-3-carboxamide]
1000 to 20000 nM | Cc1sc2ccc(OCc3ccccn3)cc2c1C(=O)NC1(CO)CC1 [Cpd 075, N-[1-(hydroxymethyl)cyclopropyl]-2-methyl-5-[(pyridin-2-yl)methoxy]-1-benzothiophene-3-carboxamide]
< 1000 nM | Cc1sc2ccc(OCc3cccnc3C(F)(F)F)cc2c1C(=O)NC1(CO)CC1 [Cpd 076, N-[1-(hydroxymethyl)cyclopropyl]-2-methyl-5-{[2-(trifluoromethyl)pyridin-3-yl]methoxy}-1-benzothiophene-3-carboxamide]
< 1000 nM | Cc1sc2ccc(OCc3ccccc3F)cc2c1C(=O)NC1(CO)CCC1 [Cpd 077, 5-[(2-fluorophenyl)methoxy]-N-[1-(hydroxymethyl)cyclobutyl]-2-methyl-1-benzothiophene-3-carboxamide]
< 1000 nM | Cc1sc2ccc(OCc3ccccn3)cc2c1C(=O)NC1(CO)CCC1 [Cpd 078, N-[1-(hydroxymethyl)cyclobutyl]-2-methyl-5-[(pyridin-2-yl)methoxy]-1-benzothiophene-3-carboxamide]
1000 to 20000 nM | Cc1sc2ccc(OCc3cccnc3O)cc2c1C(=O)NC1(CO)CCC1 [Cpd 079, N-[1-(hydroxymethyl)cyclobutyl]-5-[(2-hydroxypyridin-3-yl)methoxy]-2-methyl-1-benzothiophene-3-carboxamide]
1000 to 20000 nM | Cc1sc2ccc(OCc3ccccc3)cc2c1C(=O)NC1(CO)CCOCC1 [Cpd 080, 5-(benzyloxy)-N-[4-(hydroxymethyl)oxan-4-yl]-2-methyl-1-benzothiophene-3-carboxamide]
< 1000 nM | Cc1sc2ccc(OCc3ccccc3F)cc2c1C(=O)NC1(CO)CCOCC1 [Cpd 081, 5-[(2-fluorophenyl)methoxy]-N-[4-(hydroxymethyl)oxan-4-yl]-2-methyl-1-benzothiophene-3-carboxamide]
1000 to 20000 nM | Cc1sc2ccc(OCc3ccccn3)cc2c1C(=O)NC1(CO)CCOCC1 [Cpd 082, N-[4-(hydroxymethyl)oxan-4-yl]-2-methyl-5-[(pyridin-2-yl)methoxy]-1-benzothiophene-3-carboxamide]
1000 to 20000 nM | Cc1sc2ccc(OCc3cccnc3C(F)(F)F)cc2c1C(=O)NC1(CO)CCOCC1 [Cpd 083, N-[4-(hydroxymethyl)oxan-4-yl]-2-methyl-5-{[2-(trifluoromethyl)pyridin-3-yl]methoxy}-1-benzothiophene-3-carboxamide]
< 1000 nM | Cc1sc2ccc(OCc3cccnc3O)cc2c1C(=O)NC1(CO)CCOCC1 [Cpd 084, N-[4-(hydroxymethyl)oxan-4-yl]-5-[(2-hydroxypyridin-3-yl)methoxy]-2-methyl-1-benzothiophene-3-carboxamide]
< 1000 nM | Cc1sc2ccc(OCc3ccccc3F)cc2c1C(=O)NC1(CO)COC1 [Cpd 085, 5-[(2-fluorophenyl)methoxy]-N-[3-(hydroxymethyl)oxetan-3-yl]-2-methyl-1-benzothiophene-3-carboxamide]
